# Reference: US20050256178A1, “Novel nutraceutical compositions comprising boitin” (priority 2002, published 2005)
# What was measured:
# [1] = test system: streptozotocin-diabetic rats (IDDM); test: Oral glucose tolerance in streptozotocin-diabetic rats; type: in vivo; conditions: biotin orally (2-16 mg/day) or parentally (0.1 mg/day)
# Description: (§1) Biotin: Biotin supplementation enhances hepatic glucose clearance which results in a decrease of circulating glucose concentration and induces decrease in the hepatic PEPCK activity. PEPCK is a rate-limiting cytosolic enzyme that catalyses the first committed step of hepatic gluconeogenesis. Decrease of hepatic PEPCK activity results in a decrease in liver glucose output.
# [2] = test system: diabetic KK mice (NIDDM model); test: Oral glucose tolerance in diabetic KK mice; type: in vivo; conditions: biotin orally (2-16 mg/day) or parentally (0.1 mg/day)
# Description: as §1
# [3] = test system: type 1 and type 2 diabetic patients; test: Preliminary human studies, fasting blood glucose after biotin supplementation; type: in vivo
# Description: as §1
# C57BLKS/J db/db mice = test: Glucose removal after oral glucose load (OGTT) in db/db mice, 5-week study; type: in vivo; conditions: for Glucose removal rate (% glucose decrease of control) 90 min / Glucose removal rate (% glucose decrease of control) 120 min / Glucose removal rate (% glucose decrease of control) 150 min / Glucose removal rate (% glucose decrease of control) 180 min: OGTT (1 g glucose/kg) in db/db mice after 4 weeks feed-ad-mix, biotin 8 mg/kg BW/day, phytanic acid 300 mg/kg BW/day; for Blood glucose levels during the glucose load compared to the control group: db/db mice, glucose load 1 g/kg, 90-180 min, biotin 8, phytanic acid 300 mg/kg BW/day
# Method: The efficacy of the combination of biotin and phytanic acid as well as of both compounds alone on glucose removal was tested in a 5-week study in C57BLKS/J db/db mice (n=7−8/group). This model of late type 2 diabetes with severe hyperglycemia is widely used to determine the efficacy of anti-diabetic compounds.
# Male db/db mice were obtained from Jackson Laboratory (Bar Harbor, Me., USA). Adult mice aged 8 weeks were used in the experiment. Mice were housed individually in plastic cages with bedding and allowed free access to standard rodent food and tap water. The animal rooms were controlled for temperature (24° C.), humidity (55%), and light (12-h light-dark cycle). The animals were randomized into four groups. Biotin and phytanic acid were administered as feed-ad-mix. Corn oil (1% of diet) served as a carrier substance for biotin and phytanic acid as well as a placebo when used alone. Group 1 received placebo, group 2 received biotin at a dose of 8 mg/kg body weight (BW)/day, group 3 received phytanic acid at a dose of 300 mg/kg BW/day, and group 4 received the combination of biotin and phytanic acid at a doses of 8 and 300 mg/kg BW/day, respectively. After 4 weeks of treatment glucose removal was assessed 90, 120, 150 and 180 minutes after an oral glucose load (1 g/kg body weight). Blood samples were obtained 90, 120, 150, 180 minutes from the tail vein for determination of blood glucose levels. Blood glucose was measured by a glucose analyzer (Glucotrend Premium, Roche Diagnostics, Rotkreuz, Switzerland). All data are expressed as means for animals in each diet group. Statistical significance of the mean differences between dietary groups was tested by one-way analysis of variance (ANOVA). If significant differences were found, the Dunnett's test for multiple comparison was used to compare each group to the control group. P values less than 0.05 were considered significant. All analyses were performed with Statistica (ver. 5.5A, StatSoft, Inc).
# GRR is defined as the speed at which glucose is removed from blood and directed to the peripheral tissues. At 90, 120, 150 and 180 minutes after application of the glucose load blood glucose levels in animals treated with the combination of biotin and phytanic acid decreased to a greater extent than excepted by the decrease due to monotherapy with biotin or phytanic acid. […] To evaluate the GRR the glucose levels were expressed as the percent change of glucose levels for each group compared to the control group. The expected GRR is defined as the sum of the GRR exerted by biotin and by phytanic acid when used as a monotherapy.
# [4] = test system: pre-diabetic Otsuka Long-Evans Tokushima fatty (OLETF) rats (NIDDM); test: Oral glucose tolerance in pre-diabetic OLETF rats; type: in vivo; conditions: biotin orally (2-16 mg/day) or parentally (0.1 mg/day)
# Description: as §1
# [5] = test system: catalytic subunit of glucose-6-phosphatase; test: Affymetrix GeneChip expression of glucose-6-phosphatase catalytic subunit in H-4-II-E rat liver cells; type: cell-based; conditions: H-4-II-E cells, 24 h; 50 μM EGCG, 1 μM biotin, 50 μM cysteamin; Affymetrix Id 1370725_a_at; triplicate
# Method: The Affymetrix GeneChip® high-density oligonucleotide microarray approach was chosen to determine the global gene expression in H-4-II-E rat liver cells.
# H-4-II-E rat liver cells were obtained from the American Type Culture Collection (ATCC) and cultured in Medium 199 (Invitrogen) Basel, Switzerland) supplemented with 10% fetal calf serum in a humidified 5% CO2 atmosphere at 37° C. Cells were regularly passaged at subconfluence and used at low passage numbers. For the final assays, cells were trypsinized, seeded at a density of 1×10^6 cells/well in 6-well cell culture plates and maintained in Medium 199 & 0.1% BSA (Invitrogen) for another 6 h before compounds were applied. EGCG was applied in DMSO; cysteamin was first solved in 1M HCl and then applied to the stimulation medium, biotin was directly dissolved into the medium. After 24 h treatment, total RNA was harvested.
# A total number of 24 samples were prepared following the Affymetrix GeneChip® array protocol (Affymetrix, Santa Clara, Calif., USA). Briefly, total cellular RNA was extracted by using Qiagen RNeasy Mini Kit with an on-column RNase-free DNase I digest (Qiagen, Basel, Switzerland). A T7-(T)24 primer (5′-[sequence] [sequence]-(dT)24-3′) was annealed to 10 kg of total RNA and Superscript II reverse transcriptase (400 U) was utilized to synthesize first-strand cDNA in the presence of DTT, dNTPs and 1× reaction buffer. Second strand synthesis was performed by adding E. coli DNA polymerase I (40 U), E. coli ligase (10 U) and RNase H (2 U) in a final reaction containing 1× second strand buffer in the presence of dNTPs. Finally strands were blunted using T4 DNA polymerase (10 U) (Superscript™ Microarray Customized Kit, Invitrogen, Basel, CH). cDNA was purified by phenol/chloroform extraction and subsequently in vitro transcription was carried out for 3 h using T7 RNA polymerase (Megascript™ T7 Kit, Ambion, Tex., USA), incorporating bio-16-UTPs and bio-11-CTPs (Roche Molecular Biochemicals, Penzberg, Germany). […]
# rat primary hepatocytes = test: Glucose uptake in rat primary hepatocytes; type: cell-based; conditions: about 10 to about 100 μM
# Description: (§2) Therefore, intake of phytanic acid helps to improve insulin sensitivity and may act as a preventative measure against type 2 diabetes and Syndrome X through activation of PPARs and RXR.
# pre-adipocyte cells = test: Differentiation of pre-adipocyte cells into mature adipocytes; type: cell-based; conditions: compared to the specific PPAR-γ agonist ciglitazone
# Description: as §2
Compound,Oral glucose tolerance [1],Oral glucose tolerance [2],Fasting blood glucose levels [3],Glucose removal rate (% glucose decrease of control) 90 min (C57BLKS/J db/db mice) [%],Glucose removal rate (% glucose decrease of control) 120 min (C57BLKS/J db/db mice) [%],Glucose removal rate (% glucose decrease of control) 150 min (C57BLKS/J db/db mice) [%],Glucose removal rate (% glucose decrease of control) 180 min (C57BLKS/J db/db mice) [%],Blood glucose levels during the glucose load compared to the control group (C57BLKS/J db/db mice),Oral glucose tolerance [4],MeanAvgDiff (Mean Relative Expression) of glucose-6-phosphatase catalytic subunit [5],Uptake of glucose (rat primary hepatocytes),Effects on differentiation of pre-adipocyte cells into mature adipocytes (pre-adipocyte cells)
O=C(O)CCCC[C@@H]1SC[C@@H]2NC(=O)N[C@@H]21 [Biotin],improved oral glucose tolerance,improved oral glucose tolerance,decreased,11.6,10.2,15.3,15.0,Neither biotin nor phytanic acid caused a significant decrease,improved oral glucose tolerance,516.66,–,–
"NCCS [Cysteamin, cysteamine]",–,–,–,–,–,–,–,–,–,447.42,–,–
"O=C(O[C@@H]1Cc2c(O)cc(O)cc2O[C@@H]1c1cc(O)c(O)c(O)c1)c1cc(O)c(O)c(O)c1 [EGCG, Epigallocatechin gallate]",–,–,–,–,–,–,–,–,–,484.8,–,–
"CC(C)CCCC(C)CCCC(C)CCCC(C)CC(=O)O (stereo not shown) [Phytanic acid, 3,7,11,15-tetramethylhexadecanoic acid]",–,–,–,9.7,12.5,14.6,15.2,Neither biotin nor phytanic acid caused a significant decrease,–,–,enhances uptake of glucose,only minor effects
